PMC2813692 (Molecular cancer therapeutics, 2008)

Key:
[1] = Plasma pharmacokinetics by LC-MS/MS
[2] = test system: subjects of the Adenoma Prevention with Celecoxib Trial; conditions: ref [32], cited from earlier work
[3] = test system: metastatic colorectal cancer; conditions: second-line single-agent; ref [33]; cited from earlier work
[4] = capecitabine 1,000 mg/m^2 alone (run-in, Pre), mean ± SD in 8 patients
[5] = capecitabine 1,000 mg/m^2 in combination with 250 mg gefitinib, C1D1, mean ± SD in 8 patients

CCCCCOC(=O)Nc1nc(=O)n([C@@H]2O[C@H](C)[C@@H](O)[C@H]2O)cc1F [capecitabine]
effect of gefitinib on the AUC, Cmax, t1/2, and clearance of capecitabine ([1]; alone (run-in day) vs in combination with gefitinib (cycle 1 day 1)): no significant effects | CL/F [1, 4]: 272 ± 120 L/h | t1/2λ [1, 4]: 0.93 ± 0.92 h | CL/F [1, 5]: 300 ± 204 L/h | t1/2λ [1, 5]: 1.09 ± 0.80 h | Vd/F ([1]; human, plasma, oral, 1000 mg/m^2): 363 ± 364 L | AUC(0-inf) ([1]; human, plasma, oral, AUC0→∞, capecitabine 1,000 mg/m^2 in combination with 250 mg gefitinib, C1D1, mean ± SD in 8 patients): 13.2 ± 8.1 µM·h

Cc1ccc(-c2cc(C(F)(F)F)nn2-c2ccc(S(N)(=O)=O)cc2)cc1 [celecoxib]
steady-state plasma trough levels of celecoxib ([1]; across any of the doses tested (data not shown)): Neither capecitabine nor gefitinib affected | subjects who experienced cardiovascular events ([2]; 35 of 1,356 subjects who received celecoxib): 2.6% | increase in risk of major fatal and nonfatal cardiovascular events ([2]; compared with placebo): 2.5 fold

COc1cc2ncnc(Nc3ccc(F)c(Cl)c3)c2cc1OCCCN1CCOCC1 [gefitinib]
effect of capecitabine on the trough levels of gefitinib ([1]; across dose levels): did not affect

O=C1[O][Pt]2([NH][C@@H]3CCCC[C@H]3[NH]2)[O]C1=O [oxaliplatin]
response rate [3]: 10%
